Source: PMC9516332 (Frontiers in Oncology, 2022)
Where two headings read alike, the source gives them in different places.

Tests used:
[1] = tested on: 134 cancer cell lines; experiment: Cell viability assay (ATPlite, 72 hours), IC50 on cancer cell line panel
[2] = tested on: 134 cancer cell lines
[3] = tested on: AP-1060 (ETV6-NTRK3); experiment: Cell viability assay; settings: read-out: IC50 in cell proliferation assay
[4] = target: panel of 255 wild-type kinases (Homo sapiens, UniProt P42684); experiment: Kinase panel profiling at 1 µmol/L (MSA or IMAP), percentage inhibition; format: biochemical; settings: ARG kinase assay; 1 µmol/L single concentration; read-out: %-inhibition ARG
[5] = target: panel of 255 wild-type kinases (Homo sapiens, UniProt O00311); experiment: as above; format: biochemical; settings: CDC7/ASK kinase assay; 1 µmol/L single concentration; read-out: %-inhibition CDC7/ASK

Cc1nc(NC(=O)N2CCC[C@H]2C(N)=O)sc1-c1ccnc(C(C)(C)C(F)(F)F)c1 [alpelisib]
IC50 ([1]; Homo sapiens, NCCIT, read-out: IC50 in cell proliferation assay, NCC-IT cell line): 8.35 µM
IC50 ([1]; Homo sapiens, NCI-H82, read-out: IC50 in cell proliferation assay, cell line NCI-H82): 11.1 µM
IC50 ([1]; Homo sapiens, NCI-H460, read-out: IC50 in cell proliferation assay, NCI-H460 cell line): 7.11 µM
IC50 ([1]; Homo sapiens, NCI-H661, read-out: IC50 in cell proliferation assay, NCI-H661 cell line): 9.63 µM
IC50 ([1]; Homo sapiens, NCI-H716, read-out: IC50 in cell proliferation assay, cell line NCI-H716 (FGFR2-COL14A1)): 0.049 µM
IC50 ([1]; Homo sapiens, NCI-H1650, read-out: IC50 in cell proliferation assay, NCI-H1650 cell line (EGFR exon19del)): 18.1 µM
IC50 ([1]; Homo sapiens, NCI-H1975, read-out: IC50 in cell proliferation assay, NCI-H1975 cell line (EGFR p.L858R + p.T790M)): 1.49 µM
IC50 ([1]; Homo sapiens, NCI-H2228, read-out: IC50 in cell proliferation assay, NCI-H2228 cell line (EML4-ALK)): 4.04 µM
IC50 ([1]; Homo sapiens, OVCAR-3, read-out: IC50 in cell proliferation assay, cell line OVCAR-3): 6.11 µM
IC50 ([1]; Homo sapiens, PFSK-1, read-out: IC50 in cell proliferation assay, cell line PFSK-1): 0.52 µM
IC50 ([1]; Homo sapiens, RL95-2, read-out: IC50 in cell proliferation assay, cell line RL95-2 (EGFR p.A289V)): 18.3 µM
IC50 ([1]; Homo sapiens, RPMI-7951, read-out: IC50 in cell proliferation assay, cell line RPMI-7951 (BRAF p.V600E)): 10.1 µM
IC50 ([1]; Homo sapiens, RS4-11, read-out: IC50 in cell proliferation assay, cell line RS4;11): 4.25 µM
IC50 ([1]; Homo sapiens, Rec1, read-out: IC50 in cell proliferation assay, cell line REC-1): 3.14 µM
IC50 ([1]; Homo sapiens, SHP77, read-out: IC50 in cell proliferation assay, cell line SHP-77): > 31.6 µM
IC50 ([1]; Homo sapiens, SK-BR-3, read-out: IC50 in cell proliferation assay, cell line SK-BR-3 (ERBB2 amplification)): 0.676 µM
IC50 ([1]; Homo sapiens, SK-N-AS, read-out: IC50 in cell proliferation assay, cell line SK-N-AS): 0.065 µM
IC50 ([1]; Homo sapiens, SK-N-FI, read-out: IC50 in cell proliferation assay, cell line SK-N-FI): 3.1 µM
IC50 ([1]; Homo sapiens, SK-N-MC, read-out: IC50 in cell proliferation assay, cell line SK-N-MC): 2.6 µM
IC50 ([1]; Homo sapiens, SK-N-SH, read-out: IC50 in cell proliferation assay, cell line SK-N-SH (ALK p.F1174L)): 0.42 µM
IC50 ([1]; Homo sapiens, SNU-5, read-out: IC50 in cell proliferation assay, cell line SNU-5 (MET amplification)): 13.9 µM
IC50 ([1]; Homo sapiens, SNU-16, read-out: IC50 in cell proliferation assay, cell line SNU-16 (FGFR2 amplification)): > 31.6 µM
IC50 ([1]; Homo sapiens, SNU-C2B, read-out: IC50 in cell proliferation assay, cell line SNU-C2B (EGFR p.R165Q)): 7.04 µM
IC50 ([1]; Homo sapiens, SU-DHL-1, read-out: IC50 in cell proliferation assay, cell line SU-DHL-1 (NPM1-ALK)): 21.2 µM
IC50 ([1]; Homo sapiens, SU-DHL-6, read-out: IC50 in cell proliferation assay, cell line SU-DHL-6): 1.55 µM
IC50 ([1]; Homo sapiens, SUP-T1, read-out: IC50 in cell proliferation assay, cell line SUP-T1): 6.02 µM
IC50 ([1]; Homo sapiens, SW48, read-out: IC50 in cell proliferation assay, cell line SW48 (EGFR p.G719S)): 1.15 µM
IC50 ([1]; Homo sapiens, SW480, read-out: IC50 in cell proliferation assay, cell line SW480): 8.85 µM
IC50 ([1]; Homo sapiens, SW626, read-out: IC50 in cell proliferation assay, cell line SW626): 8.63 µM
IC50 ([1]; Homo sapiens, SW780, read-out: IC50 in cell proliferation assay, cell line SW780 (FGFR3-BAIAP2L1)): 9.85 µM
IC50 ([1]; Homo sapiens, SW837, read-out: IC50 in cell proliferation assay, cell line SW837): 21.9 µM
IC50 ([1]; Homo sapiens, SW872, read-out: IC50 in cell proliferation assay, cell line SW872 (BRAF p.V600E)): 18.8 µM
IC50 ([1]; Homo sapiens, SW900, read-out: IC50 in cell proliferation assay, cell line SW900): 4.43 µM
IC50 ([1]; Homo sapiens, SW948, read-out: IC50 in cell proliferation assay, cell line SW948): 3.3 µM
IC50 ([1]; Homo sapiens, SW982, read-out: IC50 in cell proliferation assay, cell line SW982 (BRAF p.V600E)): 22.6 µM
IC50 ([1]; Homo sapiens, SW-620, read-out: IC50 in cell proliferation assay, cell line SW620): 6.94 µM
IC50 ([1]; Homo sapiens, T98G, read-out: IC50 in cell proliferation assay, cell line T98G): 7.14 µM
IC50 ([1]; Homo sapiens, TCC-SUP, read-out: IC50 in cell proliferation assay, cell line TCCSUP): 1.1 µM
IC50 ([1]; Homo sapiens, THP-1, read-out: IC50 in cell proliferation assay, cell line THP-1): 0.117 µM
IC50 ([1]; Homo sapiens, U2OS, read-out: IC50 in cell proliferation assay, cell line U2OS): 19.3 µM
IC50 ([1]; Homo sapiens, U-87 MG, read-out: IC50 in cell proliferation assay, cell line U-87MG ATCC): 17.5 µM
IC50 ([1]; Homo sapiens, U-118-MG, read-out: IC50 in cell proliferation assay, cell line U-118MG): 16.6 µM
IC50 ([1]; Homo sapiens, UMUC3, read-out: IC50 in cell proliferation assay, cell line UM-UC-3): 17.1 µM
IC50 ([1]; Hs766T, read-out: IC50 in cell proliferation assay, Hs 766T cell line): 7.45 µM
IC50 ([1]; L-82, read-out: IC50 in cell proliferation assay, L-82 cell line (NPM1-ALK)): 20.5 µM
IC50 ([1]; Rh30, read-out: IC50 in cell proliferation assay, cell line Rh30): 3.91 µM
IC50 ([1]; read-out: IC50 in cell proliferation assay, 11-18 cell line (EGFR p.L858R)): 15.5 µM
IC50 ([1]; read-out: IC50 in cell proliferation assay, Hs 852.T cell line): 5.79 µM
IC50 ([1]; read-out: IC50 in cell proliferation assay, JAR cell line): 23.2 µM
IC50 ([1]; read-out: IC50 in cell proliferation assay, cell line 5637): 12.8 µM
IC50 ([1]; read-out: IC50 in cell proliferation assay, cell line A-388): 2.91 µM
IC50 ([1]; read-out: IC50 in cell proliferation assay, cell line DB): 23 µM
IC50 ([1]; read-out: IC50 in cell proliferation assay, cell line DEL (NPM1-ALK)): 27.8 µM
IC50 ([1]; read-out: IC50 in cell proliferation assay, cell line ES-2 (BRAF p.V600E)): > 31.6 µM
IC50 ([1]; read-out: IC50 in cell proliferation assay, cell line PA-1): 17.6 µM
IC50 ([1]; read-out: IC50 in cell proliferation assay, cell line PC-3): 22.7 µM
IC50 ([1]; read-out: IC50 in cell proliferation assay, cell line RD): 1.15 µM
IC50 ([1]; read-out: IC50 in cell proliferation assay, cell line RKO (BRAF p.V600E)): 11 µM
IC50 ([1]; read-out: IC50 in cell proliferation assay, cell line RL): 18.9 µM
IC50 ([1]; read-out: IC50 in cell proliferation assay, cell line RT-4 (FGFR3-TACC3)): 0.12 µM
IC50 ([1]; read-out: IC50 in cell proliferation assay, cell line SR (NPM1-ALK)): 10.9 µM
IC50 ([1]; read-out: IC50 in cell proliferation assay, cell line T24): 1.08 µM
IC50 ([1]; read-out: IC50 in cell proliferation assay, cell line TT (RET p.C634W)): > 31.6 µM
IC50 ([1]; read-out: IC50 in cell proliferation assay, cell line VA-ES-BJ): 5.92 µM
IC50 [2]: 0.534 µM
IC50 [3]: 1.74 µM
inhibition at 1 µM [4]: 3.28%
inhibition at 1 µM [5]: -0.499%
